These results are taken from PubChem BioAssay (NCI).

Test systems include CAKI-1 renal; CCRF-CEM leukemia; EKVX NSCLC; HCC-2998 colon; HOP-92 NSCLC; MCF7 breast; MDA-MB-231 breast; OVCAR-4 ovarian; PC-3 prostate; RXF 393 renal; SF-268 CNS; SNB-19 CNS; SR leukemia; UACC-257 melanoma; UACC-62 melanoma; RPMI-8226 leukemia; SNB-75 CNS; SK-MEL-2 melanoma.
Experiment in all cases: NCI anticancer screen, dose series, 48 h

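Five concentrations, 48 hours, 96-well plates. TGI marks complete inhibition of growth.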 Bounds are passed on as bounds.

Take `CNC(=O)OC(C)CN1c2ccccc2Sc2ccccc21` (stereo not given): the TGI in the test with CAKI-1 renal, with CCRF-CEM leukemia, in the test on EKVX NSCLC, in the test with HCC-2998 colon, in the test on HOP-92 NSCLC and in the test on MCF7 breast was over 100 µM in each case. In addition, the TGI in the test on MDA-MB-231 breast, with OVCAR-4 ovarian, with PC-3 prostate, in the test on RXF 393 renal, in the test with SF-268 CNS and in the test on SNB-19 CNS was over 100 µM each time. Further, the TGI with SR leukemia, in the test on UACC-257 melanoma and with UACC-62 melanoma was over 100 µM in each case.

With `S=C(NNC1=NCCCCN1)Nc1ccccc1`, the TGI in the test with CAKI-1 renal, in the test with CCRF-CEM leukemia, in the test on EKVX NSCLC, with HCC-2998 colon, with MCF7 breast and in the test on MDA-MB-231 breast was over 100 µM each time. The TGI with PC-3 prostate, in the test with RPMI-8226 leukemia, in the test with SF-268 CNS, in the test with SNB-19 CNS, in the test on SNB-75 CNS and in the test on SR leukemia was over 100 µM throughout. Further, the TGI in the test with UACC-257 melanoma and in the test with UACC-62 melanoma was over 100 µM each time.

Turning to `C1CSCCSS[C@@H]2CCCCC2SC1` (stereo not given in full), the TGI in the test with CCRF-CEM leukemia is over 100 µM; in the test on EKVX NSCLC, over 100 µM; in the test with HCC-2998 colon, over 100 µM; in the test on HOP-92 NSCLC, 97.8 µM; in the test on MCF7 breast, over 100 µM; in the test on MDA-MB-231 breast, over 100 µM. The TGI in the test with OVCAR-4 ovarian, with PC-3 prostate, in the test with SF-268 CNS, with SNB-19 CNS, in the test with SNB-75 CNS and in the test with SR leukemia was over 100 µM in each case. Besides, the TGI in the test on UACC-257 melanoma and in the test on UACC-62 melanoma was over 100 µM throughout.

Take `COC(=O)C1=C(O)C(C(=O)OC)[C@@]2(O)[C@@H](C(=O)OC)C(c3ccc(OC(=O)/C(=C/c4ccccc4)c4ccccc4)cc3)C[C@@H]1[C@@H]2C(=O)OC` (stereo not given in full): the TGI in the test on CAKI-1 renal, with CCRF-CEM leukemia, in the test with EKVX NSCLC, in the test on HOP-92 NSCLC, in the test with MCF7 breast and in the test with MDA-MB-231 breast was over 100 µM each time. Besides, the TGI in the test on OVCAR-4 ovarian was over 100 µM; in the test with PC-3 prostate, over 100 µM; in the test on RXF 393 renal it was 63.1 µM; with SF-268 CNS, over 100 µM; in the test with SK-MEL-2 melanoma it was 46.2 µM; with SNB-19 CNS it was over 100 µM. Besides, the TGI in the test with SNB-75 CNS was 35.6 µM; in the test on SR leukemia it was over 100 µM; with UACC-257 melanoma, over 100 µM; in the test on UACC-62 melanoma, 17.2 µM.

For the compound `C[C@H](C(=O)N1C(=O)O[C@@H](c2ccccc2)[C@H]1C)[C@H](c1ccccc1)N(Cc1ccccc1)OC(=O)c1ccccc1`, the TGI with CAKI-1 renal is over 100 µM; in the test with CCRF-CEM leukemia it was over 100 µM; in the test with HCC-2998 colon, 85.3 µM; in the test on HOP-92 NSCLC, over 100 µM; with MCF7 breast, over 100 µM; with MDA-MB-231 breast, over 100 µM. Further, the TGI in the test with OVCAR-4 ovarian was over 100 µM; with PC-3 prostate, over 100 µM; in the test with RPMI-8226 leukemia, over 100 µM; with RXF 393 renal, over 100 µM; with SF-268 CNS it was over 100 µM; in the test on SK-MEL-2 melanoma it was 73.7 µM. Also, the TGI in the test with SNB-19 CNS, in the test with SNB-75 CNS, with UACC-257 melanoma and in the test with UACC-62 melanoma was over 100 µM in each case.

In the case of `COc1cccc(NC(=O)c2c(SC)n[nH]c2N)c1`, the TGI with CAKI-1 renal, with CCRF-CEM leukemia, with EKVX NSCLC, with HCC-2998 colon, in the test on HOP-92 NSCLC and in the test with MCF7 breast was over 100 µM in each case. Besides, the TGI with MDA-MB-231 breast, in the test with OVCAR-4 ovarian, in the test on PC-3 prostate, in the test on RPMI-8226 leukemia, in the test with RXF 393 renal and in the test on SF-268 CNS was over 100 µM each time. Moreover, the TGI with SK-MEL-2 melanoma, in the test on SNB-19 CNS, in the test with SNB-75 CNS, in the test with UACC-257 melanoma and in the test with UACC-62 melanoma was over 100 µM each time.

Take `COC(=O)[C@@H]1C[C@H]2[C@H](c3ccccc3Br)[C@@H](OC(C)=O)[C@@H](OCc3ccccc3)ON2O1`: the TGI in the test on CAKI-1 renal, in the test with CCRF-CEM leukemia, in the test with EKVX NSCLC, with HCC-2998 colon, in the test on MCF7 breast and with MDA-MB-231 breast was over 100 µM in each case. In addition, the TGI in the test on OVCAR-4 ovarian, in the test with PC-3 prostate, in the test on RXF 393 renal, with SF-268 CNS, in the test on SK-MEL-2 melanoma and in the test with SNB-19 CNS was over 100 µM in each case. Further, the TGI with SNB-75 CNS, with SR leukemia, in the test with UACC-257 melanoma and with UACC-62 melanoma was over 100 µM in each case.

Take `COC(=O)C1=C(C(=O)OC)C2(/N=C(\Nc3ccccc3)c3ccccc3)N(c3ccc(OC)cc3)CC(c3ccccc3)N2O1` (stereo not given): the TGI with CAKI-1 renal, in the test on CCRF-CEM leukemia, in the test on EKVX NSCLC, with HOP-92 NSCLC, in the test with MCF7 breast and with MDA-MB-231 breast was over 100 µM in each case. Moreover, the TGI with OVCAR-4 ovarian, in the test with PC-3 prostate, in the test with RXF 393 renal, in the test with SF-268 CNS, with SK-MEL-2 melanoma and in the test with SNB-19 CNS was over 100 µM throughout. In addition, the TGI was 96.7 µM in the test with SNB-75 CNS, over 100 µM in the test with SR leukemia, over 100 µM with UACC-257 melanoma and over 100 µM in the test with UACC-62 melanoma.

On to `CC1(C)C2CCC1(C)C(NC(=O)CCN1CCOCC1)C2` (stereo not given), for which the TGI in the test with CAKI-1 renal, with CCRF-CEM leukemia, in the test with EKVX NSCLC, in the test with HCC-2998 colon, in the test with HOP-92 NSCLC and in the test with MCF7 breast was over 100 µM each time. Also, the TGI with MDA-MB-231 breast, in the test on OVCAR-4 ovarian, in the test on PC-3 prostate, with RXF 393 renal, with SF-268 CNS and in the test on SNB-19 CNS was over 100 µM in each case. In addition, the TGI in the test with SNB-75 CNS, in the test with SR leukemia, with UACC-257 melanoma and in the test with UACC-62 melanoma was over 100 µM throughout.
